According to PubChem BioAssay AID1963986 (Molecular Pharmacology Branch, DTP, NCI, 2024):
Several values for one entry are separate records, joined by “and”; a condition that tells them apart may be missing. Identical values can stand only once.

Test system: 171881-019-R-J1-PDC tumor spheroid viability
Experiment: Anticancer human tumor 171881-019-R-J1-PDC patient-derived invasive breast carcinoma cell line growth inhibition [PI3K]
Conditions: spheroids with HUVEC and MSC; for viability, T/C: stronger effect = lower value; active means viability on the fitted dose curve at most 10% of control; inactive means the rest
Outline: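 Combination activity was assessed by viability in multicellular tumor spheroids carrying HUVEC and MSC components. Agents were tested with PI3K inhibitors from a Cmax-based top dose (or 10 microM) downward in half-log increments.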

[1] = curve of first compound, second compound 0.00316 µM
[2] = curve of first compound, second compound 0.01 µM
[3] = curve of first compound, second compound 0.0316 µM
[4] = curve of first compound, second compound 0.1 µM
[5] = curve of first compound, second compound 0.316 µM
[6] = curve of first compound, second compound 1 µM
[7] = second compound 0.00316 µM, first compound 0.0316 µM
[8] = second compound 0.00316 µM, first compound 0.1 µM
[9] = second compound 0.01 µM, first compound 0.0316 µM
[10] = second compound 0.01 µM, first compound 0.1 µM
[11] = second compound 0.0316 µM, first compound 0.0316 µM
[12] = second compound 0.0316 µM, first compound 0.1 µM
[13] = second compound 0.1 µM, first compound 0.0316 µM
[14] = second compound 0.1 µM, first compound 0.1 µM
[15] = second compound 0.316 µM, first compound 0.0316 µM
[16] = second compound 0.316 µM, first compound 0.1 µM
[17] = second compound 1 µM, first compound 0.0316 µM
[18] = second compound 1 µM, first compound 0.1 µM
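Further: spheroids exposed to compound for 7 days before viability read.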
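Wherever viability, T/C is given: 100% = DMSO vehicle-treated spheroids.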

CC(=O)c1c(C)c2cnc(Nc3ccc(N4CCNCC4)cn3)nc2n(C2CCCC2)c1=O
inactive: viability, T/C (compound 0.000316 µM) 91.8% [middle of 4 runs] | viability, T/C (compound 0.001 µM) 85.3% [middle of 4 runs] | viability, T/C (compound 0.00316 µM) 97% [middle of 4 runs] | viability, T/C (compound 0.01 µM) 99.2% [middle of 4 runs] | viability, T/C (compound 0.0316 µM) 108% [middle of 4 runs] | viability, T/C (compound 0.1 µM) 88.7% [middle of 4 runs]
> 100 nM: IC50 (curve of compound)

CC(C)NCC(C(=O)N1CCN(c2ncnc3c2C(C)CC3O)CC1)c1ccc(Cl)cc1 (stereo not drawn)
inactive: viability, T/C (compound 0.0316 µM) 85.8% [middle of 4 runs] | viability, T/C (compound 0.1 µM) 76.4% [middle of 4 runs] | viability, T/C (compound 0.316 µM) 57.3% (2×) and 54.7% and 53.9% | viability, T/C (compound 1 µM) 27.4% [middle of 4 runs] | viability, T/C (compound 3.16 µM) 17.1% [middle of 4 runs]
376 nM [middle of 4 runs]: IC50 (curve of compound)
9.96% [middle of 4 runs]: viability, T/C (compound 10 µM)

CC1(C)CCC(Nc2ncc(C(F)(F)F)c(-c3c[nH]c4c(P(C)(C)=O)c(C#N)ccc34)n2)CN1 (stereo not drawn) + COc1c(OCCCN2CCOCC2)ccc2c3n(c(=NC(=O)c4cnc(N)nc4)nc12)CCN3
< 31.6 nM: IC50 [2] | IC50 [3] | IC50 [4] | IC50 [5] | IC50 [6]
active: viability, T/C (second compound 0.00316 µM, first compound 10 µM) 9.56% | viability, T/C (second compound 0.01 µM, first compound 10 µM) 3.97% | viability, T/C (second compound 0.1 µM, first compound 0.316 µM) 11.3% | viability, T/C (second compound 0.1 µM, first compound 1 µM) 12.7% | viability, T/C (second compound 0.1 µM, first compound 3.16 µM) 7.29% | viability, T/C (second compound 0.1 µM, first compound 10 µM) 0.37% | viability, T/C [15] 2.05% | viability, T/C [16] 1.65% | viability, T/C (second compound 0.316 µM, first compound 0.316 µM) 1.41% | viability, T/C (second compound 0.316 µM, first compound 1 µM) 1.53% | viability, T/C (second compound 0.316 µM, first compound 3.16 µM) 0.65% | viability, T/C (second compound 0.316 µM, first compound 10 µM) 0.12% | viability, T/C [17] 1.55% | viability, T/C [18] 0.66% | viability, T/C (second compound 1 µM, first compound 0.316 µM) 0.6% | viability, T/C (second compound 1 µM, first compound 1 µM) 0.51% | viability, T/C (second compound 1 µM, first compound 3.16 µM) 1.51% | viability, T/C (second compound 1 µM, first compound 10 µM) 0.25%
inactive: viability, T/C [7] 51.9% | viability, T/C [8] 57.2% | viability, T/C (second compound 0.00316 µM, first compound 0.316 µM) 60.6% | viability, T/C (second compound 0.00316 µM, first compound 1 µM) 69% | viability, T/C (second compound 0.00316 µM, first compound 3.16 µM) 63.2% | viability, T/C [9] 44.6% | viability, T/C [10] 49.3% | viability, T/C (second compound 0.01 µM, first compound 0.316 µM) 50.9% | viability, T/C (second compound 0.01 µM, first compound 1 µM) 55.3% | viability, T/C (second compound 0.01 µM, first compound 3.16 µM) 45.5% | viability, T/C [11] 23.4% | viability, T/C [12] 27.9% | viability, T/C (second compound 0.0316 µM, first compound 0.316 µM) 27.1% | viability, T/C (second compound 0.0316 µM, first compound 1 µM) 33.2% | viability, T/C (second compound 0.0316 µM, first compound 3.16 µM) 23.2% | viability, T/C (second compound 0.0316 µM, first compound 10 µM) 1.05% | viability, T/C [13] 11.1% | viability, T/C [14] 11.1%
4000 nM: IC50 [1]

CC(=O)c1c(C)c2cnc(Nc3ccc(N4CCNCC4)cn3)nc2n(C2CCCC2)c1=O + COc1c(OCCCN2CCOCC2)ccc2c3n(c(=NC(=O)c4cnc(N)nc4)nc12)CCN3
< 0.316 nM: IC50 [2] | IC50 [3] | IC50 [4] | IC50 [5] | IC50 [6]
> 100 nM: IC50 [1]
inactive: viability, T/C (second compound 0.00316 µM, first compound 0.000316 µM) 64.3% | viability, T/C (second compound 0.00316 µM, first compound 0.001 µM) 63.9% | viability, T/C (second compound 0.00316 µM, first compound 0.00316 µM) 65.5% | viability, T/C (second compound 0.00316 µM, first compound 0.01 µM) 73% | viability, T/C [7] 65% | viability, T/C [8] 70.4% | viability, T/C (second compound 0.01 µM, first compound 0.000316 µM) 48.1% | viability, T/C (second compound 0.01 µM, first compound 0.001 µM) 53.9% | viability, T/C (second compound 0.01 µM, first compound 0.00316 µM) 52.2% | viability, T/C (second compound 0.01 µM, first compound 0.01 µM) 55.1% | viability, T/C [9] 57.9% | viability, T/C [10] 58.5% | viability, T/C (second compound 0.0316 µM, first compound 0.000316 µM) 20.7% | viability, T/C (second compound 0.0316 µM, first compound 0.001 µM) 25% | viability, T/C (second compound 0.0316 µM, first compound 0.00316 µM) 26.8% | viability, T/C (second compound 0.0316 µM, first compound 0.01 µM) 27% | viability, T/C [11] 28.5% | viability, T/C [12] 27.9%
active: viability, T/C (second compound 0.1 µM, first compound 0.000316 µM) 6.71% | viability, T/C (second compound 0.1 µM, first compound 0.001 µM) 6.39% | viability, T/C (second compound 0.1 µM, first compound 0.00316 µM) 8.12% | viability, T/C (second compound 0.1 µM, first compound 0.01 µM) 7.28% | viability, T/C [13] 8.51% | viability, T/C [14] 7.44% | viability, T/C (second compound 0.316 µM, first compound 0.000316 µM) 1.58% | viability, T/C (second compound 0.316 µM, first compound 0.001 µM) 2.19% | viability, T/C (second compound 0.316 µM, first compound 0.00316 µM) 1.53% | viability, T/C (second compound 0.316 µM, first compound 0.01 µM) 1.61% | viability, T/C [15] 1.59% | viability, T/C [16] 1.7% | viability, T/C (second compound 1 µM, first compound 0.000316 µM) 1.49% | viability, T/C (second compound 1 µM, first compound 0.001 µM) 1.21% | viability, T/C (second compound 1 µM, first compound 0.00316 µM) 1.21% | viability, T/C (second compound 1 µM, first compound 0.01 µM) 1.26% | viability, T/C [17] 1.35% | viability, T/C [18] 1.32%
